In PubChem BioAssay (NCI):
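Following 48 hours of exposure in 96-well plates, responses at five concentrations were used to interpolate endpoints linearly. GI50 marks 50% less growth. TGI: total growth inhibition.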

Tests used:
Assay in all cases: NCI tumour cell line growth inhibition, 48 h
MOLT-4 leukemia = system: MOLT-4 leukemia
EKVX NSCLC = system: EKVX NSCLC
CCRF-CEM leukemia = system: CCRF-CEM leukemia
SK-MEL-2 melanoma = system: SK-MEL-2 melanoma
CAKI-1 renal = system: CAKI-1 renal
HOP-92 NSCLC = system: HOP-92 NSCLC
OVCAR-3 ovarian = system: OVCAR-3 ovarian
T-47D breast = system: T-47D breast
MDA-MB-231 breast = system: MDA-MB-231 breast
MCF7 breast = system: MCF7 breast

SMILES	TGI (MOLT-4 leukemia)	TGI (EKVX NSCLC)	TGI (CCRF-CEM leukemia)	TGI (SK-MEL-2 melanoma)	TGI (CAKI-1 renal)	TGI (HOP-92 NSCLC)	TGI (OVCAR-3 ovarian)	GI50 (MOLT-4 leukemia)	GI50 (T-47D breast)	TGI (T-47D breast)	GI50 (EKVX NSCLC)	GI50 (CCRF-CEM leukemia)	GI50 (CAKI-1 renal)	GI50 (MDA-MB-231 breast)	TGI (MDA-MB-231 breast)	GI50 (HOP-92 NSCLC)	GI50 (MCF7 breast)	TGI (MCF7 breast)	GI50 (OVCAR-3 ovarian)	GI50 (SK-MEL-2 melanoma)
N#C/C(=C/c1cccnc1)C(=O)c1ccccc1	> 100 µM	> 100 µM	> 100 µM	> 100 µM	> 100 µM	> 100 µM	> 100 µM													
CCCCCCCCCCCCCC/C(C(=O)OC)=C(/O)C(=O)OCC	> 100 µM	> 100 µM	> 100 µM	32 µM	> 100 µM	54.5 µM	> 100 µM													
CCOP(=O)(CC(=O)C1=C(O)C(CCCNC(=O)OC(C)(C)C)N(Cc2ccc(OC)c(OC)c2)C1=O)OCC (centres undefined)	> 100 µM	> 100 µM	> 100 µM	> 100 µM			> 100 µM													
Cc1cc(S(=O)(=O)Nc2nc3ccsc3c(=O)n2Cc2ccco2)c(S)cc1Cl	84.2 µM	> 100 µM	> 100 µM		> 100 µM	> 100 µM	> 100 µM	19.4 µM	> 100 µM	> 100 µM	> 100 µM	50.7 µM	> 100 µM	> 100 µM	> 100 µM	> 100 µM	> 100 µM	> 100 µM	> 100 µM	
CC1=C(C(=O)Nc2ccccc2C)C(c2ccc([N+](=O)[O-])cc2)C(C(=O)Nc2ccccc2C)=C(C)N1	> 100 µM	> 100 µM	90.5 µM	> 100 µM	> 100 µM		> 100 µM													
CC12O[C@H](c3ccccc3)[C@H](c3ccccc3)N1C(=O)C1(C(=O)OCc3ccccc3)CC12 (some centres undefined)	63.2 µM		> 100 µM	> 100 µM	> 100 µM	> 100 µM	> 100 µM													
Cc1c(O)c(=O)ccn1C1OC(CO)C(O)C1O (centres undefined)	> 100 µM	> 100 µM	> 100 µM	> 100 µM	> 100 µM	> 100 µM	> 100 µM													
NCCNCC(O)CO (centres undefined)	> 100 µM	> 100 µM		> 100 µM	> 100 µM	> 100 µM	> 100 µM			> 100 µM					> 100 µM			> 100 µM		
COc1ccc2nc(NCCCNCCO)c3sc4ccc(F)cc4c(=O)c3c2c1	3.97 µM	2.94 µM		3.95 µM	2.98 µM	2.45 µM	3.38 µM	1.85 µM	1.68 µM	3.93 µM	1.45 µM		1.58 µM	1.43 µM	2.84 µM	1.1 µM	1.79 µM	3.53 µM	1.8 µM	1.92 µM
N#Cc1c[nH]n2ccnc12	> 100 µM	> 100 µM	> 100 µM	> 100 µM	> 100 µM		> 100 µM			> 100 µM					> 100 µM			> 100 µM		
N/N=C1\c2ccccc2C2/C(=N\N)c3ccccc3C12 (centres undefined)	> 100 µM	> 100 µM	> 100 µM	> 100 µM	> 100 µM	> 100 µM	> 100 µM													
